Patent US7803821B2, “Fungicide N-cycloalkyl-carboxamide, thiocarboxamide and N-substituted-carboximidamide derivatives” (Bayer Cropscience SA, priority 2006, dated 2010)

Assay: log P by HPLC on reversed-phase column (C18), EEC Directive 79/831 Annex V.A8
Assay type: physicochemical
Conditions: C18, 40° C., 0.1% aqueous formic acid and acetonitrile, gradient 10% to 90% acetonitrile
Experimental: Temperature: 40° C.; Mobile phases: 0.1% aqueous formic acid and acetonitrile; linear gradient from 10% acetonitrile to 90% acetonitrile.

Compound | logP
CC(c1ncc(Cl)cc1Cl)N(C(=S)c1cn(C)nc1C(F)F)C1CC1 (stereo not shown) [Example 32] | 4.01
Cc1nc(C(F)(F)F)ccc1CN(C(=O)c1cn(C)nc1C(F)(F)F)C1CC1 [Example 85] | 2.82
Cc1nc(C(=O)N(C2CC2)C(C)c2cnccn2)c(C)o1 (stereo not shown) [Example 39] | 1.55
Cc1nc(C(=O)N(Cc2c(Cl)cncc2Cl)C2CC2)c(C)o1 [Example 99] | 2.18
Cn1cc(C(=O)N(Cc2c(Cl)cncc2Cl)C2CC2)c(C(F)F)n1 [Example 103] | 1.88
CCc1nn(C)c(F)c1C(=O)N(C1CC1)C(C)c1ncc(Cl)cc1Cl (stereo not shown) [Example 33] | 3.23
COc1ccc(CN(C(=O)c2ccsc2I)C2CC2)cn1 [Example 55] | 2.75
COc1nn(C)cc1C(=O)N(C1CC1)C(C)c1cnc(Cl)c(Cl)c1 (stereo not shown) [Example 6] | 2.29
Cc1ccoc1C(=O)N(Cc1c(Cl)cncc1Cl)C1CC1 [Example 101] | 2.87
Cc1ncoc1C(=O)N(Cc1c(Cl)cncc1Cl)C1CC1 [Example 105] | 2.04
COc1nn(C)cc1C(=O)N(Cc1ccc(C(F)(F)F)nc1C)C1CC1 [Example 88] | 2.02
Cc1nn(C)c(F)c1C(=O)N(Cc1ccc(Oc2ccccc2)nc1)C1CC1 [Example 35] | 2.39
Cc1nn(C)cc1C(=O)N(C1CC1)C(C)c1cccnc1Cl (racemic) [Example 78] | 1.58
CCC(c1ccncc1)N(C(=O)c1cn(C)nc1C(F)F)C1CC1 (stereo not shown) [Example 18] | 1.79
COc1ccnc(CN(C(=O)c2nn(C)nc2C(F)(F)F)C2CC2)c1OC [Example 111] | 1.44
Cc1nc(C(F)F)c(C(=O)N(Cc2ncc(Cl)cc2Cl)C2CC2)s1 [Example 24] | 3.42
Cc1ncoc1C(=O)N(C1CC1)C(C)c1cnccn1 (stereo not shown) [Example 44] | 1.37
Cc1cc(C(=O)N(C2CC2)C(C)c2cnc(Cl)c(Cl)c2)c(C)o1 (stereo not shown) [Example 3] | 3.7
Cc1nc(C(F)F)c(C(=O)N(Cc2ccncc2)C2CC2)s1 [Example 14] | 0.58

Compound | logP
COc1ccc(CN(C(=O)c2ccco2)C2CC2)cn1 [Example 56] | 1.97
Cc1cc(C(=O)N(C2CC2)C(C)c2cccnc2Cl)no1 (racemic) [Example 83] | 2.07
COc1ccnc(CN(C(=O)c2cn(C)nc2C(F)(F)F)C2CC2)c1OC [Example 108] | 1.18
Cc1nn(C)c(F)c1C(=O)N(Cc1c(Cl)cncc1Cl)C1CC1 [Example 102] | 2.01
Cc1nc(C(F)F)c(C(=O)N(Cc2ccc(Cl)cn2)C2CC2)s1 [Example 52] | 2.54
Cc1nc(C(F)(F)F)c(C(=O)N(Cc2ccncc2)C2CC2)s1 [Example 13] | 0.93
Cn1cc(C(=O)N(Cc2ccc(Cl)cn2)C2CC2)c(C(F)F)n1 [Example 54] | 2.08
Cn1cc(C(=O)N(Cc2ccncc2)C2CC2)c(C(F)(F)F)n1 [Example 11] | 0.59
COc1ccc(CN(C(=O)c2cc(C)on2)C2CC2)cn1 [Example 63] | 2.08
Cc1nn(C)c(F)c1C(=O)N(Cc1cnc(Cl)cc1Cl)C1CC1 [Example 9] | 2.28
COc1ccc(CN(C(=O)c2cn(C)nc2C)C2CC2)cn1 [Example 58] | 1.53
O=C(c1sccc1I)N(Cc1ncc(Cl)cc1Cl)C1CC1 [Example 26] | 4.16
COc1nn(C)cc1C(=O)N(Cc1ccc(Cl)nc1)C1CC1 [Example 74] | 1.56
Cn1cc(C(=O)N(Cc2cnc(Cl)cc2Cl)C2CC2)c(C(F)F)n1 [Example 10] | 2.46
COc1ccnc(CN(C(=O)c2cn(C)cc2C(F)(F)F)C2CC2)c1OC [Example 112] | 1.32
COc1ccnc(CN(C(=O)c2sc(C)nc2C(F)F)C2CC2)c1OC [Example 110] | 1.2
Cc1nc(C(F)(F)F)c(C(=O)N(Cc2ncc(Cl)cc2Cl)C2CC2)s1 [Example 23] | 3.76
COc1ccc(CN(C(=O)c2c(C)nn(C)c2F)C2CC2)cn1 [Example 60] | 1.64
